In PubChem BioAssay (NCI):
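Each compound was tested at five concentrations against cells in 96-well plates for 48 hours. TGI: total growth inhibition.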

Legend:
Assay in all cases: NCI anticancer screen, dose series, 48 h
BT-549 breast = system: BT-549 breast
NCI-H460 lung = system: NCI-H460 lung
M14 melanoma = system: M14 melanoma
KM12 colon = system: KM12 colon
HCC-2998 colon = system: HCC-2998 colon
HCT-116 colon = system: HCT-116 colon
HOP-92 NSCLC = system: HOP-92 NSCLC
MDA-MB-435 = system: MDA-MB-435
SW-620 colon = system: SW-620 colon
HL-60(TB) leukemia = system: HL-60(TB) leukemia

Row | SMILES | TGI (BT-549 breast) | TGI (NCI-H460 lung) | TGI (M14 melanoma) | TGI (KM12 colon) | TGI (HCC-2998 colon) | TGI (HCT-116 colon) | TGI (HOP-92 NSCLC) | TGI (MDA-MB-435) | TGI (SW-620 colon) | TGI (HL-60(TB) leukemia)
1 | COc1ccc(-c2cc(=O)c3cc(OC)c(OC)cc3[nH]2)cc1OC | > 100 µM | > 100 µM | > 100 µM | > 100 µM | > 100 µM | > 100 µM | > 100 µM | > 100 µM | > 100 µM | –
2 | CCCSC1=N/C(=C\c2ccco2)C(=O)N1 | > 100 µM | > 100 µM | > 100 µM | > 100 µM | > 100 µM | > 100 µM | > 100 µM | > 100 µM | > 100 µM | –
3 | CCOC(=O)C(NC(=O)c1cccc(Cl)c1)(N1CCN(c2cc3c(cc2F)c(=O)c(C(=O)O)cn3CC)CC1)C(F)(F)F (centres undefined) | 43.7 µM | 81.2 µM | 31.9 µM | 25.2 µM | 27.5 µM | 27.6 µM | 33.4 µM | 28 µM | 29.4 µM | 20.1 µM
4 | COc1ccc(Sc2ccccc2[N+](=O)[O-])cc1 | – | > 100 µM | > 100 µM | > 100 µM | 62.1 µM | > 100 µM | > 100 µM | – | > 100 µM | 20.8 µM
5 | NS(=O)(=O)c1cc2c(cc1Cl)NC(C(=O)NNC(=O)c1ccncc1)=NS2(=O)=O | – | > 100 µM | > 100 µM | > 100 µM | > 100 µM | > 100 µM | > 100 µM | – | > 100 µM | > 100 µM
6 | CCc1n[nH]c(=O)n1-c1ccncc1 | > 100 µM | > 100 µM | > 100 µM | > 100 µM | > 100 µM | > 100 µM | > 100 µM | > 100 µM | > 100 µM | > 100 µM
7 | Cn1c(=O)c(C#N)c(O)c2cc3ccccc3nc21 | – | > 100 µM | > 100 µM | > 100 µM | > 100 µM | > 100 µM | > 100 µM | – | > 100 µM | > 100 µM
8 | Cc1cc(NS(=O)(=O)c2ccc(NC(NC(=O)OC(C)C)(C(F)(F)F)C(F)(F)F)cc2)nc(C)n1 | – | > 100 µM | > 100 µM | > 100 µM | > 100 µM | > 100 µM | > 100 µM | > 100 µM | > 100 µM | > 100 µM
9 | COc1ccc(N=C(SSC(=Nc2ccc(OC)cc2)c2ccc([N+](=O)[O-])o2)c2ccc([N+](=O)[O-])o2)cc1 | 3.22 µM | > 24.3 µM | 4.98 µM | 2.79 µM | 3.26 µM | 3.49 µM | 6.7 µM | 3.93 µM | – | 7.07 µM
10 | C[C@@H](c1ccccc1)N(CC#N)[C@H]1CCC[C@]1(O)/C=C/c1ccc2c(c1)OCO2 | – | > 25 µM | > 25 µM | > 25 µM | > 25 µM | > 25 µM | > 25 µM | > 25 µM | – | > 25 µM
11 | FC(F)(Sc1nc2ccccc2[nH]1)c1nc2ccccc2o1 | > 100 µM | > 100 µM | > 100 µM | > 100 µM | > 100 µM | > 100 µM | > 100 µM | > 100 µM | > 100 µM | –
12 | O=C1C[C@@]23CCC4(CC2=CCC[C@H]3O1)OCCO4 | – | > 100 µM | > 100 µM | > 100 µM | > 100 µM | > 100 µM | > 100 µM | > 100 µM | > 100 µM | > 100 µM
13 | CCCCCCCCCCCCCCCC(=O)OCC(COP(=O)(O)OCCNC(=O)CCSSc1ccccn1)OC(=O)CCCCCCCCCCCCCCC (centres undefined) | > 100 µM | > 100 µM | > 100 µM | > 100 µM | – | > 100 µM | > 100 µM | > 100 µM | > 100 µM | > 100 µM
14 | CC(C)S1=C2C(=O)CC(C)(C)CC2=Nc2ccccc21 (centres undefined) | > 100 µM | > 100 µM | > 100 µM | > 100 µM | > 100 µM | > 100 µM | > 100 µM | > 100 µM | > 100 µM | –
15 | CC(=O)OC1C(C)OC(OC2C[C@](O)(C(C)=O)Cc3c(O)c4c(c(O)c32)C(=O)c2ccccc2C4=O)C(F)C1OC(C)=O (some centres undefined) | 33.2 µM | 1.53 µM | 10.7 µM | > 100 µM | 16.6 µM | 2.84 µM | 6.52 µM | 23.5 µM | > 100 µM | –
16 | Clc1cc2ncn(C3CCCO3)c2cc1Cl (centres undefined) | 86.4 µM | – | > 100 µM | > 100 µM | > 100 µM | > 100 µM | > 100 µM | > 100 µM | > 100 µM | > 100 µM
17 | CNc1nc(OC)c2c(n1)[n+](C)cn2C | > 100 µM | > 100 µM | > 100 µM | > 100 µM | – | > 100 µM | > 100 µM | > 100 µM | > 100 µM | > 100 µM
18 | O=C(Cn1c(-c2ccccc2)cc2ccccc21)N1CCOCC1 | – | > 100 µM | > 100 µM | > 100 µM | > 100 µM | > 100 µM | > 100 µM | > 100 µM | > 100 µM | > 100 µM
19 | CCOC(=O)c1sc2nc(SC)nc3c2c1NCN3c1ccccc1Cl | > 100 µM | > 100 µM | > 100 µM | > 100 µM | > 100 µM | > 100 µM | 57.6 µM | > 100 µM | > 100 µM | –
20 | CC1=C(C(=O)OC(C)(C)C)C(c2ccc([N+](=O)[O-])cc2)C(C(=O)OC(C)(C)C)=C(C)N1 | 44.1 µM | 38.6 µM | 47.6 µM | 38.5 µM | 27.2 µM | 36.4 µM | 29.7 µM | 57.9 µM | 54 µM | –
21 | Nc1cc(O)c2cc(N=Nc3ccc(N=Nc4ccc(N=Nc5ccc6cc(S(=O)(=O)O)cc(S(=O)(=O)O)c6c5)c5ccccc45)c4cc(S(=O)(=O)O)ccc34)c(S(=O)(=O)O)cc2c1 | – | > 100 µM | – | > 100 µM | > 100 µM | > 100 µM | > 93.3 µM | – | > 100 µM | > 100 µM
22 | CCN(CCCl)c1ccc(NC(=O)c2cc(C(=O)NCCN(C)C)cc(C(=O)Nc3ccc(N(CC)CCCl)cc3)c2)cc1 | – | 28 µM | 28.2 µM | 25.4 µM | 35 µM | 22.3 µM | 29.8 µM | 33.9 µM | 18 µM | 3.19 µM
